pIC50: −log10 of the molar value. Read-outs that look alike come from different tables or passages of the source.
Key:
[1] = tested on: angiotensin II; conditions: binding experiments, functional assays and in vivo tests; cited from earlier work
[2] = molecular target: T1, rabbit aortic rings (angiotensin II contraction) (Oryctolagus cuniculus, UniProt P34976); test: Assay B: In Vitro Vascular Smooth Muscle Response for AII (rabbit aortic rings); type: cell-based, rabbit (male New Zealand white); conditions: rabbit aorta rings, antagonist 10^-5 M for 5 min, 37° C., read-out: Assay B pA2 (converted)
T1 construct: The thoracic aorta was removed, cleaned of adherent fat and connective tissue and then cut into 3-mm ring segments; from tissue; host or cells: rabbit thoracic aorta rings, endothelium removed
T1 sequence (P34976 1-359): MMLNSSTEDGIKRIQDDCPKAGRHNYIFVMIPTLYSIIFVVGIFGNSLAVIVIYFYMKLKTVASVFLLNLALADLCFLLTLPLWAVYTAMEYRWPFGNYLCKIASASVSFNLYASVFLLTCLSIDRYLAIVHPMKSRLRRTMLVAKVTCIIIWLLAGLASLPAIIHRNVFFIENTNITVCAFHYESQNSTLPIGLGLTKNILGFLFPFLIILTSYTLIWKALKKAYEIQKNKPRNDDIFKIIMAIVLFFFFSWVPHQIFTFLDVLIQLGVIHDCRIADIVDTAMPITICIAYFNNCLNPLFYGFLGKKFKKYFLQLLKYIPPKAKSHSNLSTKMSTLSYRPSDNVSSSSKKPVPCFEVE
Method: Assay B: In Vitro Vascular Smooth Muscle-Response for AII
The compounds of the invention were tested for antagonist activity in rabbit aortic rings. Male New Zealand white rabbits (2-2.5 kg) were sacrificed using an overdose of pentobarbital and exsanguinated via the carotid arteries. The thoracic aorta was removed, cleaned of adherent fat and connective tissue and then cut into 3-mm ring segments. The endothelium was removed from the rings by gently sliding a rolled-up piece of filter paper into the vessel lumen. The rings were then mounted in a water-jacketed tissue bath, maintained at 37° C., between moveable and fixed ends of a stainless steel wire with the moveable end attached to an FT03 Grass transducer coupled to a Model 7D Grass Polygraph for recording isometric force responses. The bath was filled with 20 ml of oxygenated (95% oxygen/5% carbon dioxide) Krebs solution of the following composition (mM): 130 NaCl, 15 NaHCO3, […], 1.2 NaH2 PO4, 1.2 MgSO4, 2.5 CaCl2, and 11.4 glucose. The preparations were equilibrated for one hour before approximately one gram of passive tension was placed on the rings. Angiotensin II concentration-response curves were then recorded (3×10^-10 to 1×10^-5 M). Each concentration of AII was allowed to elicit its maximal contraction, and then AII was washed out repeatedly for 30 minutes before rechallenging with a higher concentration of AII. Aorta rings were exposed to the test antagonist at 10^-5 M for 5 minutes before challenging with AII. Adjacent segments of the same aorta ring were used for all concentration-response curves in the presence or absence of the test antagonist. The effectiveness of the test compound was expressed in terms of pA2 values and were calculated according to H. O. Schild [Br. J. Pharmacol. Chemother., 2, 189-206 (1947)]. The pA2 value is the concentration of the antagonist which increases the IC50 value for AII by a factor of two. Each test antagonist was evaluated in aorta rings from two rabbits.

[3] = molecular target: smooth muscle angiotensin II receptor; test: Assay A: Angiotensin II Binding Activity (displacement of 125I-angiotensin II, rat uterine membrane preparation); conditions: 50% displacement of specifically bound 125I-AII, rat uterine membranes, 25° C., 60 min, pH 7.5
Method: Assay A: Angiotensin II Binding Activity
Compounds of the invention were tested for ability to bind to the smooth muscle angiotensin II receptor using a rat uterine membrane preparation. Angiotensin II (AII) was purchased from Peninsula Labs. ^125 I-angiotensin II (specific activity of 2200 Ci/mmol) was purchased from Du Pont-New England Nuclear. Other chemicals were obtained from Sigma Chemical Co. This assay was carried out according to the method of Douglas et al [Endocrinology, 106, 120-124 (1980)]. Rat uterine membranes were prepared from fresh tissue. All procedures were carried out at 4° C. Uteri were stripped of fat and homogenized in phosphate-buffered saline at pH 7.4 containing 5 mM EDTA. The homogenate was centrifuged at 1500×g for 20 min., and the supernatant was recentrifuged at 100,000×g for 60 min. The pellet was resuspended in buffer consisting of 2 mM EDTA and 50 mM Tris-HCl (pH 7.5) to a final protein concentration of 4 mg/ml. Assay tubes were charged with 0.25 ml of a solution containing 5 mM MgCl2, 2 mM EDTA, 0.5% bovine serum albumin, 50 mM Tris-HCl, pH 7.5 and ^125 I-AII (approximately 10^5 cpm) in the absence or in the presence of unlabelled ligand. The reaction was initiated by the addition of membrane protein and the mixture was incubated at 25° C. for 60 min. The incubation was terminated with ice-cold 50 mM Tris-HCl (pH 7.5) and the mixture was filtered to separate membrane-bound labeled peptide from the free ligand. The incubation tube and filter were washed with ice-cold buffer. Filters were assayed for radioactivity in a Micromedic gamma counter. Nonspecific binding was defined as binding in the presence of 10 μM of unlabelled AII. Specific binding was calculated as total binding minus nonspecific binding. The receptor binding affinity of an AII antagonist compound was indicated by the concentration (IC50) of the tested AII antagonist which gives 50% displacement of the total specifically bound ^125 I-AII from the high affinity AII receptor. Binding data were analyzed by a nonlinear least-squares curve fitting program.

[4] = tested on: angiotensin II; conditions: cited from earlier work
[5] = first of two values in the cell (rings from two rabbits)
[6] = second of two values in the cell (rings from two rabbits)

SMILES | specific competitive angiotensin II antagonist activity [1] | Kb [2, 5] | Kb [2, 6] | pIC50 [3] | residual agonist activity [4]
CCCCc1nc(Cl)c(CC(=O)O)n1Cc1ccccc1[N+](=O)[O-] [2-butyl-4-chloro-1-(2-nitrobenzyl)imidazole-5-acetic acid] | specific competitive angiotensin II antagonist activity | – | – | – | –
CCCCc1nc(Cl)c(CC(=O)O)n1Cc1ccccc1Cl [2-n-butyl-4-chloro-1-(2-chlorobenzyl)imidazole-5-acetic acid] | specific competitive angiotensin II antagonist activity | – | – | – | –
CCCCc1ncc2n1C(c1ccc(-c3ccccc3-c3nnn[nH]3)cc1)CC=C2CC(=O)OC(C)(C)C (stereo not drawn) [Example 17, 1,1-Dimethylethyl 3-butyl-5,6-dihydro-5-[2'-(1H-tetrazol-5-yl)[1,1'-biphenyl]-4-yl]imidazo[1,5-a]pyridin-8-acetate] | – | 16.2 nM | 53.7 nM | 7.39 | –
CCCCc1nc(CCCC)n2c1C(=NO)CCC2c1ccc(-c2ccccc2-c2nn[nH]n2)cc1 (stereo not drawn) [Example 21, 1,3-Dibutyl-5,6-dihydro-N-hydroxy-5-[2'-(1H-tetrazol-5-yl)[1.1'-biphenyl]-4-yl]imidazol[1,5-a]pyridin-8(7H)-imine] | – | 105 nM | 741 nM | 7.18 | –
CNCC(=O)N[C@@H](CCCN=C(N)N)C(=O)N[C@H](C(=O)N[C@@H](Cc1ccc(O)cc1)C(=O)N[C@H](C(=O)N[C@@H](Cc1cnc[nH]1)C(=O)N1CCC[C@H]1C(=O)N[C@@H](C)C(=O)O)C(C)C)C(C)C [Saralasin] | – | – | – | – | significant residual agonist activity

Reference: patent US5674879A, “Compositions including and methods of using conformationally restricted angiotensin II antagonist” (G.D. Searle & Co., priority 1995, dated 1997)
